The record followed here is PubChem BioAssay AID256 (DTP/NCI, 2004).

Several values for one entry are separate records, joined by “and”; a condition that tells them apart may be missing. Identical values can stand only once. Inconclusive results and toxic doses are left out.

This experiment relates to CD2F1 mice, L1210 leukemia ip, survival T/C. As to the kind of experiment: NCI In Vivo Anticancer Drug Screen. Data for tumor model L1210 Leukemia (intraperitoneal) in CD2F1 (CDF1) mice. The following applies: higher = longer survival. The method in brief: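 Ratio T/C, where T is the treated-group value and C the vehicle-dosed control value, from mice implanted with a transplantable tumor.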

[1] abbreviates: endpoint: mean survival time, dose: 100.0 mg/kg/injection, schedule: Q04DX003 (ip), vehicle: saline with Tween-80.
The mark [2] stands for this setting: endpoint: mean survival time, dose: 100.0 mg/kg/injection, schedule: Q01DX009 (ip), vehicle: saline with Tween-80.
[3] abbreviates: endpoint: mean survival time, dose: 200.0 mg/kg/injection, schedule: Q01DX009 (ip), vehicle: saline with Tween-80.
Where [4] appears, read: endpoint: mean survival time, dose: 200.0 mg/kg/injection, schedule: Q04DX003 (ip), vehicle: saline with Tween-80.
[5] abbreviates: endpoint: mean survival time, dose: 400.0 mg/kg/injection, schedule: Q01DX009 (ip), vehicle: saline with Tween-80.
The mark [6] stands for this setting: endpoint: mean survival time, dose: 100.0 mg/kg/injection, schedule: Q01DX001 (ip), vehicle: saline with Tween-80.
The mark [7] stands for this setting: endpoint: mean survival time, dose: 200.0 mg/kg/injection, schedule: Q01DX001 (ip), vehicle: saline with Tween-80.
The mark [8] stands for this setting: endpoint: mean survival time, dose: 400.0 mg/kg/injection, schedule: Q01DX001 (ip), vehicle: saline with Tween-80.
Where [9] appears, read: endpoint: mean survival time, dose: 25.0 mg/kg/injection, schedule: Q01DX009 (ip), vehicle: saline.
The mark [10] stands for this setting: endpoint: mean survival time, dose: 50.0 mg/kg/injection, schedule: Q01DX009 (ip), vehicle: saline.
Setting [11] is: endpoint: mean survival time, dose: 100.0 mg/kg/injection, schedule: Q01DX009 (ip), vehicle: saline.
[12] abbreviates: endpoint: mean survival time, dose: 25.0 mg/kg/injection, schedule: Q01DX005 (ip), vehicle: other.
Setting [13] is: endpoint: mean survival time, dose: 50.0 mg/kg/injection, schedule: Q01DX005 (ip), vehicle: other.

Consider `NC(=O)NNc1ccc([N+](=O)[O-])cc1[N+](=O)[O-]`, for which the T/C is 93 % of control (endpoint: mean survival time, dose: 25.0 mg/kg/injection, schedule: Q04DX003 (ip), vehicle: saline with Tween-80); 89 % of control (endpoint: mean survival time, dose: 50.0 mg/kg/injection, schedule: Q04DX003 (ip), vehicle: saline with Tween-80); 97 % of control under setting [1].

With `Clc1ccc(Oc2ccc(Cl)cc2)cc1`, the T/C (endpoint: mean survival time, dose: 50.0 mg/kg/injection, schedule: Q01DX009 (ip), vehicle: saline with Tween-80) is 94 % of control; the T/C under setting [2] is 100 % of control; the T/C under setting [3] is 105 % of control.

Turning to `CC(=O)O[C@H]1CC[C@H]2[C@@H]3CCC4=C(Cl)C(=O)CC[C@]4(C)[C@H]3CC[C@]12C`, the T/C was 96 % of control under setting [2]; 97 % of control under setting [1]; 94 % of control under setting [3]; 96 % of control under setting [4]; 94 % of control under setting [5]; 103 % of control (endpoint: mean survival time, dose: 400.0 mg/kg/injection, schedule: Q04DX003 (ip), vehicle: saline with Tween-80).

For `O=C(Nc1ccccc1C(F)(F)F)c1cccc(Cl)c1`, the T/C (endpoint: mean survival time, dose: 100.0 mg/kg/injection, schedule: Q01DX009 (ip), vehicle: saline + alcohol) was 90 % of control; the T/C (endpoint: mean survival time, dose: 100.0 mg/kg/injection, schedule: Q04DX003 (ip), vehicle: saline + alcohol) was 97 % of control; the T/C (endpoint: mean survival time, dose: 200.0 mg/kg/injection, schedule: Q01DX009 (ip), vehicle: saline + alcohol) is 93 % of control; the T/C (endpoint: mean survival time, dose: 200.0 mg/kg/injection, schedule: Q04DX003 (ip), vehicle: saline + alcohol) is 100 % of control; the T/C (endpoint: mean survival time, dose: 400.0 mg/kg/injection, schedule: Q01DX009 (ip), vehicle: saline + alcohol) was 96 % of control; the T/C (endpoint: mean survival time, dose: 400.0 mg/kg/injection, schedule: Q04DX003 (ip), vehicle: saline + alcohol) is 95 % of control.

As for `Cc1ccc(Cl)cc1N=Cc1ccccc1O`, the T/C is 98 % of control under setting [2]; 110 % of control (endpoint: mean survival time, dose: 132.0 mg/kg/injection, schedule: Q04DX003 (ip), vehicle: saline with Tween-80); 94 % of control under setting [3]; 102 % of control under setting [4]; 100 % of control (endpoint: mean survival time, dose: 300.0 mg/kg/injection, schedule: Q04DX003 (ip), vehicle: saline with Tween-80); 97 % of control under setting [5].

For the molecule `Nc1cccnc1`, the T/C is, setting by setting: (endpoint: mean survival time, dose: 5.0 mg/kg/injection, schedule: Q04DX003 (ip), vehicle: saline) 92 % of control; (endpoint: mean survival time, dose: 10.0 mg/kg/injection, schedule: Q04DX003 (ip), vehicle: saline) 94 % of control; (endpoint: mean survival time, dose: 20.0 mg/kg/injection, schedule: Q04DX003 (ip), vehicle: saline) 94 % of control.

Turning to `Cc1ccc(Sc2cccc3c2C(=O)c2c(Sc4ccc(C)cc4)cccc2C3=O)cc1`, the T/C runs as follows: under setting [2], 93 % of control; under setting [3], 86 % of control.

On to `CCOC(=O)C[Se]CC(=O)OCC`, for which the T/C was 100 % of control under setting [6] and 103 % of control under setting [7].

On to `O=C(CCl)N1CCC(CC2(c3cc4ccccc4[nH]3)OCCO2)CC1`, for which the T/C runs as follows: (endpoint: mean survival time, dose: 50.0 mg/kg/injection, schedule: Q04DX002 (ip), vehicle: other) 106 % of control; (endpoint: mean survival time, dose: 100.0 mg/kg/injection, schedule: Q04DX002 (ip), vehicle: other) 109 % of control; (endpoint: mean survival time, dose: 200.0 mg/kg/injection, schedule: Q04DX002 (ip), vehicle: other) 91 % of control.

Consider `COc1cc2c(cc1OCc1ccccc1)NC(=O)C2`, for which the T/C under setting [6] is 91 % of control and the T/C under setting [8] was 86 % of control.

As to `Cc1cn(C2CC(O)C(CO)O2)c(=O)[nH]c1=O` (stereo unspecified), the T/C runs as follows: (endpoint: mean survival time, dose: 12.5 mg/kg/injection, schedule: Q01DX009 (ip), vehicle: saline) 95 % of control and 104 % of control; under setting [9], 91 % of control and 103 % of control; under setting [10], 91 % of control and 104 % of control; under setting [11], 98 % of control; (endpoint: mean survival time, dose: 200.0 mg/kg/injection, schedule: Q01DX009 (ip), vehicle: saline) 95 % of control and 103 % of control; (endpoint: mean survival time, dose: 250.0 mg/kg/injection, schedule: Q03HX008 (ip), vehicle: saline) 102 % of control. Further, the T/C reads like this: (endpoint: mean survival time, dose: 400.0 mg/kg/injection, schedule: Q01DX009 (ip), vehicle: saline) 92 % of control; (endpoint: mean survival time, dose: 500.0 mg/kg/injection, schedule: Q03HX008 (ip), vehicle: saline) 110 % of control; (endpoint: mean survival time, dose: 1000.0 mg/kg/injection, schedule: Q03HX008 (ip), vehicle: saline) 102 % of control.

Turning to `S=C(S)NC1CCCCC1`, the T/C by setting is: (endpoint: mean survival time, dose: 6.0 mg/kg/injection, schedule: Q04DX003 (ip), vehicle: saline with Tween-80) 98 % of control; (endpoint: mean survival time, dose: 12.0 mg/kg/injection, schedule: Q04DX003 (ip), vehicle: saline with Tween-80) 102 % of control; (endpoint: mean survival time, dose: 24.0 mg/kg/injection, schedule: Q04DX003 (ip), vehicle: saline with Tween-80) 94 % of control.

Take `CCC[As](=O)(O)CCC`: the T/C was 103 % of control under setting [9], 108 % of control under setting [10] and 98 % of control under setting [11].

For `CC(=O)N(N)c1ccccc1`, the T/C under setting [6] is 105 % of control, the T/C under setting [7] was 109 % of control and the T/C under setting [8] is 105 % of control.

Regarding `c1cc2c3c(c1)CCC3CCC2` (stereo unspecified), the T/C was 96 % of control under setting [2], 101 % of control under setting [3] and 90 % of control under setting [5].

In the case of `[CH3][Sn]1([CH3])[O]C2C(CO)OC(n3ccc(=O)[nH]c3=O)C2[O]1` (stereo unspecified), the T/C by setting is: (endpoint: mean survival time, dose: 12.5 mg/kg/injection, schedule: Q01DX005 (ip), vehicle: other) 95 % of control; under setting [12], 101 % of control; under setting [13], 92 % of control.

Consider `OC(CI)C(O)C(O)C(O)CI` (stereo unspecified) (tested in a mixture with another compound), for which the T/C is 96 % of control (endpoint: mean survival time, dose: 50.0 mg/kg/injection, schedule: Q01DX001 (ip), vehicle: saline with Tween-80); 100 % of control under setting [6]; 96 % of control under setting [7].

As to `CC(C)OC(=O)c1cc([N+](=O)[O-])c(Sc2ncnc3nc[nH]c23)c([N+](=O)[O-])c1`, the T/C is 109 % of control (endpoint: mean survival time, dose: 0.63 mg/kg/injection, schedule: Q01DX005 (ip), vehicle: other); 119 % of control (endpoint: mean survival time, dose: 1.25 mg/kg/injection, schedule: Q01DX005 (ip), vehicle: other); 114 % of control (endpoint: mean survival time, dose: 2.5 mg/kg/injection, schedule: Q01DX005 (ip), vehicle: other); 124 % of control (endpoint: mean survival time, dose: 5.0 mg/kg/injection, schedule: Q01DX005 (ip), vehicle: other); 115 % of control (endpoint: mean survival time, dose: 9.9 mg/kg/injection, schedule: Q01DX005 (ip), vehicle: other); 157 % of control under setting [12]. Further, the T/C is, setting by setting: (endpoint: mean survival time, dose: 33.3 mg/kg/injection, schedule: Q01DX005 (ip), vehicle: other) 158 % of control; under setting [13], 151 % of control and 178 % of control and 184 % of control; (endpoint: mean survival time, dose: 100.0 mg/kg/injection, schedule: Q01DX005 (ip), vehicle: other) 89 % of control.

For `COC(=O)CCC1CCC(=O)O1` (stereo unspecified), the T/C is, setting by setting: under setting [2], 98 % of control; (endpoint: mean survival time, dose: 100.0 mg/kg/injection, schedule: Q04DX003 (ip), vehicle: saline) 102 % of control; under setting [3], 105 % of control; (endpoint: mean survival time, dose: 200.0 mg/kg/injection, schedule: Q04DX003 (ip), vehicle: saline) 100 % of control; under setting [5], 94 % of control; (endpoint: mean survival time, dose: 400.0 mg/kg/injection, schedule: Q04DX003 (ip), vehicle: saline) 100 % of control.

For the molecule `O=C(O)CC(=O)O.[NH-]CC(O)CN(Cc1ccccc1)CC(O)CN.[Pt+2]` (stereo unspecified), the T/C (endpoint: median survival time, dose: 2.5 mg/kg/injection, schedule: Q04DX003 (ip), vehicle: water) was 102 % of control; the T/C (endpoint: median survival time, dose: 5.0 mg/kg/injection, schedule: Q04DX003 (ip), vehicle: water) is 101 % of control; the T/C (endpoint: median survival time, dose: 10.0 mg/kg/injection, schedule: Q04DX003 (ip), vehicle: water) is 108 % of control; the T/C (endpoint: median survival time, dose: 12.5 mg/kg/injection, schedule: Q04DX003 (ip), vehicle: water) is 104 % of control; the T/C (endpoint: median survival time, dose: 20.0 mg/kg/injection, schedule: Q04DX003 (ip), vehicle: water) is 111 % of control; the T/C (endpoint: median survival time, dose: 25.0 mg/kg/injection, schedule: Q04DX003 (ip), vehicle: water) was 102 % of control. Further, the T/C was 104 % of control (endpoint: median survival time, dose: 50.0 mg/kg/injection, schedule: Q04DX003 (ip), vehicle: water) and 108 % of control (endpoint: median survival time, dose: 100.0 mg/kg/injection, schedule: Q04DX003 (ip), vehicle: water).
